These results are taken from US9512107B2, “Therapeutically active compositions and their methods of use” (Agios Pharmaceuticals, Inc., priority 2012, dated 2016).

SMILES strings stand for the structures. Positions count from the first letter of the chain named. Read-outs that look alike come from different tables or passages of the source.

Assay [1] has as its system U87MG pLVX-IDH2 R140Q-neo cells. The assay can be described thus: U87MG pLVX-IDH2 R140Q-neo cell based assay, 2-HG in media by LC-MS at 48 hours. In short, it runs like this:
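U87MG cells stably expressing IDH2 R140Q were seeded overnight, then exposed to compound at 0.2% final DMSO at 37 °C, 5% CO2. 2-HG in the medium was quantified by LC-MS at 48 h. Growth inhibition was read by CellTiter-Glo luminescence at 72 h.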

In a further assay the target is T1, IDH2 R140Q (Homo sapiens, UniProt P48735, R140Q).
T1 sequence (P48735 40-452 R140Q): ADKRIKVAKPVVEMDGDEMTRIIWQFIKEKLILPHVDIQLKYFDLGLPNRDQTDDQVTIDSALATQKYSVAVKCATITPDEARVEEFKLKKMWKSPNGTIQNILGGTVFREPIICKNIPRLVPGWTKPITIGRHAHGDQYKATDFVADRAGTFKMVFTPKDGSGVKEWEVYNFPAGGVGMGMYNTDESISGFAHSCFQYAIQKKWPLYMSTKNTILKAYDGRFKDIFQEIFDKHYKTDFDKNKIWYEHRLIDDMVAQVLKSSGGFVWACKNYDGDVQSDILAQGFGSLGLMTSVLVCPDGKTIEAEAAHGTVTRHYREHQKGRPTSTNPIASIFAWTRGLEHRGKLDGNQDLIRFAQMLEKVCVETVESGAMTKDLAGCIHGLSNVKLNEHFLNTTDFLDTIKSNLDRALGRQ
Put plainly: IDH2 R140Q enzymatic assay (cofactor depletion, similar format). The format is biochemical. Particulars: read-out: Enz R140Q.

Another assay has as its target T2, IDH2 R172K (Homo sapiens, UniProt P48735, R172K).
T2 sequence (P48735 40-452 R172K): T1 sequence (P48735 40-452 R140Q) with Q101R, R133K
Put plainly: IDH2 R172K enzymatic assay (NADPH cofactor depletion, diaphorase/resazurin readout). It counts as biochemical. Particulars: read-out: Enz R172K. In short, it runs like this: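 Compound was preincubated with IDH2 R172K for 1 h at room temperature, then the reaction was started with substrate mix containing 50 μM NADPH and 6.3 mM α-KG. After another 1 h at room temperature, stop mix with diaphorase and resazurin consumed the remaining NADPH, and resorufin fluorescence was read.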

As to `COC(C)CNc1nc(Nc2ccnc(C(F)(F)F)c2)nc(-c2cccc(C(F)(F)F)n2)n1` (stereo not drawn) [Compound 524, N-(2-Methoxy-propyl)-6-(6-trifluoromethyl-pyridin-2-yl)-N′-(2-trifluoromethyl-pyridin-4-yl)-[1,3,5]triazine-2,4-diamine], the IC50 in assay [1] (Homo sapiens, U-87 MG) is less than 100 nM; on IDH2 R140Q it was 100 to 1000 nM; on IDH2 R172K it was less than 100 nM.

`CC(CO)Nc1nc(Nc2ccnc(C(F)(F)F)c2)nc(-c2cccc(C(F)(F)F)n2)n1` (stereo not drawn) [Compound 527, 2-[4-(6-Trifluoromethyl-pyridin-2-yl)-6-(2-trifluoromethyl-pyridin-4-ylamino)-[1,3,5]triazin-2-ylamino]-propan-1-ol]: the IC50 in assay [1] (Homo sapiens, U-87 MG) was less than 100 nM; at IDH2 R140Q, 100 to 1000 nM; at IDH2 R172K, less than 100 nM.

As for `COCCCNc1nc(Nc2ccnc(C(F)(F)F)c2)nc(-c2cccc(C(F)(F)F)n2)n1` [Compound 528, N-(3-Methoxy-propyl)-N′-(2-trifluoromethyl-pyridin-4-yl)-6-(6-trifluoromethyl-pyridin-2-yl)-[1,3,5]triazine-2,4-diamine], the IC50 was less than 100 nM in assay [1] (Homo sapiens, U-87 MG); 100 to 1000 nM on IDH2 R140Q; 100 to 1000 nM at IDH2 R172K.

Turning to `FC(F)(F)c1cc(Nc2nc(NC3CCOC3)nc(-c3cccc(C(F)(F)F)n3)n2)ccn1` (stereo not drawn) [Compound 529, N-(Tetrahydro-furan-3-yl)-N′-(2-trifluoromethyl-pyridin-4-yl)-6-(6-trifluoromethyl-pyridin-2-yl)-[1,3,5]triazine-2,4-diamine], the IC50 was less than 100 nM in assay [1] (Homo sapiens, U-87 MG); 100 to 1000 nM at IDH2 R140Q; less than 100 nM at IDH2 R172K.

As for `CC(C)(CO)CNc1nc(Nc2ccnc(C(F)(F)F)c2)nc(-c2cccc(C(F)(F)F)n2)n1` [Compound 530, 2,2-Dimethyl-3-[4-(6-trifluoromethyl-pyridin-2-yl)-6-(2-trifluoromethyl-pyridin-4-ylamino)-[1,3,5]triazin-2-ylamino]-propan-1-ol], the IC50 is less than 100 nM in assay [1] (Homo sapiens, U-87 MG); 100 to 1000 nM at IDH2 R140Q; 100 to 1000 nM at IDH2 R172K.

For `CC1(CNc2nc(Nc3ccnc(C(F)(F)F)c3)nc(-c3cccc(C(F)(F)F)n3)n2)CCCO1` (stereo not drawn) [Compound 531, N-(2-Methyl-tetrahydro-furan-2-ylmethyl)-6-(6-trifluoromethyl-pyridin-2-yl)-N′-(2-trifluoromethyl-pyridin-4-yl)-[1,3,5]triazine-2,4-diamine], the IC50 is less than 100 nM in assay [1] (Homo sapiens, U-87 MG); 100 to 1000 nM on IDH2 R140Q; less than 100 nM at IDH2 R172K.

Take `CC1CC1Nc1nc(Nc2ccnc(C(F)(F)F)c2)nc(-c2cccc(C(F)(F)F)n2)n1` (stereo not drawn) [Compound 532, N-(2-Methyl-cyclopropyl)-6-(6-trifluoromethyl-pyridin-2-yl)-N′-(2-trifluoromethyl-pyridin-4-yl)-[1,3,5]triazine-2,4-diamine]: the IC50 in assay [1] (Homo sapiens, U-87 MG) was less than 100 nM; on IDH2 R140Q, 100 to 1000 nM; at IDH2 R172K, less than 100 nM.

On to `CC1(Nc2nc(Nc3ccnc(C(F)(F)F)c3)nc(-c3cccc(C(F)(F)F)n3)n2)CC1` [Compound 533, N-(1-Methyl-cyclopropyl)-6-(6-trifluoromethyl-pyridin-2-yl)-N′-(2-trifluoromethyl-pyridin-4-yl)-[1,3,5]triazine-2,4-diamine], for which the IC50 is less than 100 nM in assay [1] (Homo sapiens, U-87 MG); 100 to 1000 nM at IDH2 R140Q; less than 100 nM at IDH2 R172K.

Take `CC(C)Nc1nc(Nc2ccc(F)nc2)nc(-c2nccc(C(F)(F)F)n2)n1` [Compound 535, N-(6-Fluoro-pyridin-3-yl)-N′-isopropyl-6-(4-trifluoromethyl-pyrimidin-2-yl)-[1,3,5]triazine-2,4-diamine]: the IC50 in assay [1] (Homo sapiens, U-87 MG) is less than 100 nM; on IDH2 R140Q, 100 to 1000 nM; at IDH2 R172K, 100 to 1000 nM.

Regarding `CC(C)Nc1nc(Nc2cncc(C(F)(F)F)c2)nc(-c2nccc(C(F)(F)F)n2)n1` [Compound 536, N-Isopropyl-N′-(5-trifluoromethyl-pyridin-3-yl)-6-(4-trifluoromethyl-pyrimidin-2-yl)-[1,3,5]triazine-2,4-diamine], the IC50 in assay [1] (Homo sapiens, U-87 MG) was less than 100 nM; at IDH2 R140Q, 1000 to 10000 nM; on IDH2 R172K, 100 to 1000 nM.

As to `CC(C)Nc1nc(Nc2ccnc(F)c2)nc(-c2nccc(C(F)(F)F)n2)n1` [Compound 537, N-(2-Fluoro-pyridin-4-yl)-N′-isopropyl-6-(4-trifluoromethyl-pyrimidin-2-yl)-[1,3,5]triazine-2,4-diamine], the IC50 was less than 100 nM in assay [1] (Homo sapiens, U-87 MG); 100 to 1000 nM on IDH2 R140Q; less than 100 nM on IDH2 R172K.

As for `CC(C)Nc1nc(Nc2ccnc(F)c2)nc(-c2nccc(C(F)(F)F)n2)n1` [Compound 538], the IC50 in assay [1] was less than 100 nM; on IDH2 R140Q, 1000 to 10000 nM; on IDH2 R172K, 100 to 1000 nM.

Turning to `OC1(CNc2nc(Nc3cc(F)cc(F)c3)nc(-c3cccc(C(F)(F)F)n3)n2)CC1` [Compound 541, 1-{[4-(3,5-Difluoro-phenylamino)-6-(6-trifluoromethyl-pyridin-2-yl)-[1,3,5]triazin-2-ylamino]-methyl}-cyclopropanol], the IC50 is less than 100 nM in assay [1] (Homo sapiens, U-87 MG); 100 to 1000 nM at IDH2 R140Q; 100 to 1000 nM at IDH2 R172K.

In the case of `CC(C)Nc1nc(Nc2cccc(C(C)(C)O)c2)nc(-c2cccc(C(F)(F)F)n2)n1` [Compound 542, 2-{3-[4-Isopropylamino-6-(6-trifluoromethyl-pyridin-2-yl)-[1,3,5]triazin-2-ylamino]-phenyl}-propan-2-ol], the IC50 in assay [1] (Homo sapiens, U-87 MG) was less than 100 nM; at IDH2 R140Q, 100 to 1000 nM; on IDH2 R172K it was less than 100 nM.

Consider `Cn1cc(Nc2nc(Nc3ccnc(C(F)(F)F)c3)nc(-c3cccc(C(F)(F)F)n3)n2)cn1` [Compound 543, N-(1-Methyl-1H-pyrazol-4-yl)-6-(6-trifluoromethyl-pyridin-2-yl)-N′-(2-trifluoromethyl-pyridin-4-yl)-[1,3,5]triazine-2,4-diamine], for which the IC50 was less than 100 nM in assay [1] (Homo sapiens, U-87 MG); 100 to 1000 nM on IDH2 R140Q; 100 to 1000 nM at IDH2 R172K.

As for `Cn1nccc1Nc1nc(Nc2ccnc(C(F)(F)F)c2)nc(-c2cccc(C(F)(F)F)n2)n1` [Compound 544, N-(2-Methyl-2H-pyrazol-3-yl)-6-(6-trifluoromethyl-pyridin-2-yl)-N′-(2-trifluoromethyl-pyridin-4-yl)-[1,3,5]triazine-2,4-diamine], the IC50 in assay [1] (Homo sapiens, U-87 MG) was less than 100 nM; at IDH2 R140Q, 100 to 1000 nM; at IDH2 R172K, 100 to 1000 nM.

As for `FC(F)(F)c1cc(Nc2nc(Nc3cncs3)nc(-c3cccc(C(F)(F)F)n3)n2)ccn1` [Compound 546, N2-(thiazol-5-yl)-6-(6-(trifluoromethyl)pyridin-2-yl)-N4-(2-(trifluoromethyl)pyridin-4-yl)-1,3,5-triazine-2,4-diamine], the IC50 was less than 100 nM in assay [1] (Homo sapiens, U-87 MG); 100 to 1000 nM at IDH2 R140Q; 100 to 1000 nM on IDH2 R172K.

`FC(F)(F)c1cc(Nc2nc(NCC3CCOC3)nc(-c3cccc(C(F)(F)F)n3)n2)ccn1` (stereo not drawn) [Compound 547, N-(Tetrahydro-furan-3-ylmethyl)-N′-(2-trifluoromethyl-pyridin-4-yl)-6-(6-trifluoromethyl-pyridin-2-yl)-[1,3,5]triazine-2,4-diamine]: the IC50 was less than 100 nM in assay [1] (Homo sapiens, U-87 MG); 100 to 1000 nM at IDH2 R140Q; less than 100 nM at IDH2 R172K.

As for `CC(O)C(C)Nc1nc(Nc2ccnc(C(F)(F)F)c2)nc(-c2cccc(C(F)(F)F)n2)n1` (stereo not drawn) [Compound 548, 3-[4-(6-Trifluoromethyl-pyridin-2-yl)-6-(2-trifluoromethyl-pyridin-4-ylamino)-[1,3,5]triazin-2-ylamino]-butan-2-ol], the IC50 in assay [1] (Homo sapiens, U-87 MG) is less than 100 nM; on IDH2 R140Q, 100 to 1000 nM; at IDH2 R172K, 100 to 1000 nM.

Regarding `CC1(Nc2nc(Nc3ccnc(C(F)(F)F)c3)nc(-c3cccc(C(F)(F)F)n3)n2)COC1` [Compound 549, N-(3-Methyl-oxetan-3-yl)-6-(6-trifluoromethyl-pyridin-2-yl)-N′-(2-trifluoromethyl-pyridin-4-yl)-[1,3,5]triazine-2,4-diamine], the IC50 in assay [1] (Homo sapiens, U-87 MG) is less than 100 nM; on IDH2 R140Q it was 100 to 1000 nM; at IDH2 R172K, less than 100 nM.

As to `CC1(CNc2nc(Nc3ccnc(C(F)(F)F)c3)nc(-c3cccc(C(F)(F)F)n3)n2)COC1` [Compound 550, N-(3-Methyl-oxetan-3-ylmethyl)-6-(6-trifluoromethyl-pyridin-2-yl)-N′-(2-trifluoromethyl-pyridin-4-yl)-[1,3,5]triazine-2,4-diamine], the IC50 in assay [1] (Homo sapiens, U-87 MG) is less than 100 nM; at IDH2 R140Q, 100 to 1000 nM; on IDH2 R172K, less than 100 nM.
